From the kinase profiling compilation of Christmann-Franck et al. (2016)

Tests used:
Experiment in all cases: split-luciferase competition binding
AKT1 (human) = AKT1 (human) (UniProt P31749); settings: compound 10.0 µM
AKT2 (human) = AKT2 (human) (UniProt P31751); settings: compound 10.0 µM
AKT3 (human) = AKT3 (human) (UniProt Q9Y243); settings: compound 10.0 µM
AURKA (human) = AURKA (human) (UniProt O14965); settings: compound 10.0 µM
AURKC (human) = AURKC (human) (UniProt Q9UQB9); settings: compound 10.0 µM
DMPK (human) = DMPK (human) (UniProt Q09013); settings: compound 10.0 µM
PDPK1 (human) = PDPK1 (human) (UniProt O15530); settings: compound 10.0 µM
PKN1 (human) = PKN1 (human) (UniProt Q16512); settings: compound 10.0 µM
PRKACA (mouse) = settings: compound 10.0 µM; accession and sequence are those of the human protein
PRKACB (human) = PRKACB (human) (UniProt P22694); settings: compound 10.0 µM
PRKCD (human) = PRKCD (human) (UniProt Q05655); settings: compound 10.0 µM
PRKCE (human) = PRKCE (human) (UniProt Q02156); settings: compound 10.0 µM
PRKCG (human) = PRKCG (human) (UniProt P05129); settings: compound 10.0 µM
PRKCH (human) = PRKCH (human) (UniProt P24723); settings: compound 10.0 µM
PRKCI (human) = PRKCI (human) (UniProt P41743); settings: compound 10.0 µM
PRKCQ (human) = PRKCQ (human) (UniProt Q04759); settings: compound 10.0 µM
PRKX (human) = PRKX (human) (UniProt P51817); settings: compound 10.0 µM
RPS6KA1 KD1 (human) = RPS6KA1 KD1 (human) (UniProt Q15418); settings: compound 10.0 µM
RPS6KA2 KD1 (human) = RPS6KA2 KD1 (human) (UniProt Q15349); settings: compound 10.0 µM
RPS6KA3 KD1 (human) = RPS6KA3 KD1 (human) (UniProt P51812); settings: compound 10.0 µM
RPS6KA4 KD1 (human) = RPS6KA4 KD1 (human) (UniProt O75676); settings: compound 10.0 µM
RPS6KA5 KD1 (human) = RPS6KA5 KD1 (human) (UniProt O75582); settings: compound 10.0 µM
RPS6KA6 KD1 (human) = RPS6KA6 KD1 (human) (UniProt Q9UK32); settings: compound 10.0 µM
SGK2 (human) = SGK2 (human) (UniProt Q9HBY8); settings: compound 10.0 µM
SGK3 (human) = SGK3 (human) (UniProt Q96BR1); settings: compound 10.0 µM
STK32B (human) = STK32B (human) (UniProt Q9NY57); settings: compound 10.0 µM
AURKB (human) = AURKB (human) (UniProt Q96GD4); settings: compound 10.0 µM

Sequence of AURKA (human) (O14965 whole entry, looked up): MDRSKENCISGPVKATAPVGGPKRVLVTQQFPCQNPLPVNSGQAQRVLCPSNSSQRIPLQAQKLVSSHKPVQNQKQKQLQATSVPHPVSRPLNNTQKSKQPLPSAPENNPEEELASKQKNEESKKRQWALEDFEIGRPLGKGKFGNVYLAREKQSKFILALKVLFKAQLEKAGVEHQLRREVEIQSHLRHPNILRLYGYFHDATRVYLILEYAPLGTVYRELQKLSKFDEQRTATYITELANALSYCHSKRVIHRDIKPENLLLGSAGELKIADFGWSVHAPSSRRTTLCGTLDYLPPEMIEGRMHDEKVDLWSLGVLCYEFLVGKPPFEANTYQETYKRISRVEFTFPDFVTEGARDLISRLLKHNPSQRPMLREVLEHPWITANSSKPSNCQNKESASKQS
Sequence of PKN1 (human) (Q16512 whole entry, looked up): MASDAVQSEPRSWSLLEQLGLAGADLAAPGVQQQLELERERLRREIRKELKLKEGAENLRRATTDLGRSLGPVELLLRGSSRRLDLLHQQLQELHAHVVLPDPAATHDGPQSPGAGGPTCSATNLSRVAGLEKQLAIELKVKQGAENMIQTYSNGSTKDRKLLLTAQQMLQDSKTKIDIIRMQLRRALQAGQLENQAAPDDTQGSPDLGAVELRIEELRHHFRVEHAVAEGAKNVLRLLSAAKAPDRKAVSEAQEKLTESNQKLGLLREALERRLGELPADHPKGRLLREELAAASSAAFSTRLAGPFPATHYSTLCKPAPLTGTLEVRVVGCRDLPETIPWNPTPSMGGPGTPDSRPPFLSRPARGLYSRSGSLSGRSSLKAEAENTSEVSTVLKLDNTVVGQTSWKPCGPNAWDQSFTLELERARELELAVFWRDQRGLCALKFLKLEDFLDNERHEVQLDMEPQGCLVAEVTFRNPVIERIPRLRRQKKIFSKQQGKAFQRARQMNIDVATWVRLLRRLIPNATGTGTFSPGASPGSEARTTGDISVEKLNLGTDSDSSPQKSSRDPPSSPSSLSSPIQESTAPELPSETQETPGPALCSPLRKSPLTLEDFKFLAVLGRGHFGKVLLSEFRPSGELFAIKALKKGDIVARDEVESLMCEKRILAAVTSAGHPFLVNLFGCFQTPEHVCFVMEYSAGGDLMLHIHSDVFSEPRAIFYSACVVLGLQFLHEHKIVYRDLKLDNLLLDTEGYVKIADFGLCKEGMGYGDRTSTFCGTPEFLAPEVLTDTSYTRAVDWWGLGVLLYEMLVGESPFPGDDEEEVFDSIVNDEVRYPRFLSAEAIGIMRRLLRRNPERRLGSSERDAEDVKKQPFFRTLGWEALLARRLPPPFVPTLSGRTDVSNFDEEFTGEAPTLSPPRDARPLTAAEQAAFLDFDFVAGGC
Sequence of RPS6KA3 KD1 (human) (P51812 whole entry, looked up): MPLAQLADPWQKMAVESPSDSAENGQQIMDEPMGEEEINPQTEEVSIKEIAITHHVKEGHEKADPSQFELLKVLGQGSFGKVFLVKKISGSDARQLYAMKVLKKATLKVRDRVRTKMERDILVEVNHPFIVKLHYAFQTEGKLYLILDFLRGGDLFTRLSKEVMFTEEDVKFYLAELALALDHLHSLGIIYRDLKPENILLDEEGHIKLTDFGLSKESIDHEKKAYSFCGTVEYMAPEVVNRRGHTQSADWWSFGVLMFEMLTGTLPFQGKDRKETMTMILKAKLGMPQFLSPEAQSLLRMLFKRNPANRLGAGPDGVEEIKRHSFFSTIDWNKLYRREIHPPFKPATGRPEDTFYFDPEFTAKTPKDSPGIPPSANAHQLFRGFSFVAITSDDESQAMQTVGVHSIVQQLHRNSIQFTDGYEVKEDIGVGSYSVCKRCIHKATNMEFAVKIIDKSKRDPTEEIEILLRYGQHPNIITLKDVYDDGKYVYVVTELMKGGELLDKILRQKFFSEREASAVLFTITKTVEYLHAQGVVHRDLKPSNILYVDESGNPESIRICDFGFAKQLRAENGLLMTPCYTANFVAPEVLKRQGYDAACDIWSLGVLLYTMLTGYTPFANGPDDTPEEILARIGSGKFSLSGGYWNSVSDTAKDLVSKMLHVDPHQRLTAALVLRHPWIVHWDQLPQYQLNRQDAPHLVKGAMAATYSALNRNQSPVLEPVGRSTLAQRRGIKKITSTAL
Sequence of PRKX (human) (P51817 whole entry, looked up): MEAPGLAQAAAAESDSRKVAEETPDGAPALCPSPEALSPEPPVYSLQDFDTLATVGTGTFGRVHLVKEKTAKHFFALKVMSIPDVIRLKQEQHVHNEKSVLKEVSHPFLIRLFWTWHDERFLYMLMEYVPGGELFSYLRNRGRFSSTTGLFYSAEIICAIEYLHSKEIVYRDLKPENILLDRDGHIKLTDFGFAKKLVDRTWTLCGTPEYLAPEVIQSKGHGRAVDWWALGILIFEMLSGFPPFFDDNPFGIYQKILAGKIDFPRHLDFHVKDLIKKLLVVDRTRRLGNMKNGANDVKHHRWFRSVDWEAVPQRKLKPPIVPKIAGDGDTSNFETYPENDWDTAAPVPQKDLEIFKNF
Sequence of DMPK (human) (Q09013 whole entry, looked up): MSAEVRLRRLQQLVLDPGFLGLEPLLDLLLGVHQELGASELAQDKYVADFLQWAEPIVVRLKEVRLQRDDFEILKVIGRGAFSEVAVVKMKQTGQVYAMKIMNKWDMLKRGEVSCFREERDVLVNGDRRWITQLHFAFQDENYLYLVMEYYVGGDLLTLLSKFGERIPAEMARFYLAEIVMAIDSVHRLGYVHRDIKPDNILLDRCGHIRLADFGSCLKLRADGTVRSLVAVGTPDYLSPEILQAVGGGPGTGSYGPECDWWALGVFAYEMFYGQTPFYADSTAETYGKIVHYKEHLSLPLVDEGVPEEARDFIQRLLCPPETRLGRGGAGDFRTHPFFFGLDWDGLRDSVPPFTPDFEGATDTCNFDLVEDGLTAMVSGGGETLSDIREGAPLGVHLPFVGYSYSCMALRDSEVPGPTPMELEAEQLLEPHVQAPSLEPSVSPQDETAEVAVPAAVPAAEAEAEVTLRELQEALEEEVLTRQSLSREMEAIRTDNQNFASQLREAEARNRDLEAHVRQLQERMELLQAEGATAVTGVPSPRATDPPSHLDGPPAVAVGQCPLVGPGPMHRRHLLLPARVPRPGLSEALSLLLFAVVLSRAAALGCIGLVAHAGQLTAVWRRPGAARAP
Sequence of AKT1 (human) (P31749 whole entry, looked up): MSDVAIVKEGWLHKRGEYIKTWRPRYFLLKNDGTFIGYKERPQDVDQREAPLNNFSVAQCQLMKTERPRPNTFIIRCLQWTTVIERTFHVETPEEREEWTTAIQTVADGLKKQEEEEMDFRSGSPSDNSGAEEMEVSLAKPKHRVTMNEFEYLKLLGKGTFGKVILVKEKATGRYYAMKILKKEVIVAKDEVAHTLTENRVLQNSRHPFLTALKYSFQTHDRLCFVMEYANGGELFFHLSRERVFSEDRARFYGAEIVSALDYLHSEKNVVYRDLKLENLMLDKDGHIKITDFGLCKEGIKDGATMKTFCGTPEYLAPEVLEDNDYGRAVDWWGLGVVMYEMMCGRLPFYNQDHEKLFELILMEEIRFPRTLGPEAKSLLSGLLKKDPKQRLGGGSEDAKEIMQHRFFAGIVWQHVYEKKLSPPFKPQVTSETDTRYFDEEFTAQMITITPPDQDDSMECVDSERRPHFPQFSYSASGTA
Sequence of RPS6KA4 KD1 (human) (O75676 whole entry, looked up): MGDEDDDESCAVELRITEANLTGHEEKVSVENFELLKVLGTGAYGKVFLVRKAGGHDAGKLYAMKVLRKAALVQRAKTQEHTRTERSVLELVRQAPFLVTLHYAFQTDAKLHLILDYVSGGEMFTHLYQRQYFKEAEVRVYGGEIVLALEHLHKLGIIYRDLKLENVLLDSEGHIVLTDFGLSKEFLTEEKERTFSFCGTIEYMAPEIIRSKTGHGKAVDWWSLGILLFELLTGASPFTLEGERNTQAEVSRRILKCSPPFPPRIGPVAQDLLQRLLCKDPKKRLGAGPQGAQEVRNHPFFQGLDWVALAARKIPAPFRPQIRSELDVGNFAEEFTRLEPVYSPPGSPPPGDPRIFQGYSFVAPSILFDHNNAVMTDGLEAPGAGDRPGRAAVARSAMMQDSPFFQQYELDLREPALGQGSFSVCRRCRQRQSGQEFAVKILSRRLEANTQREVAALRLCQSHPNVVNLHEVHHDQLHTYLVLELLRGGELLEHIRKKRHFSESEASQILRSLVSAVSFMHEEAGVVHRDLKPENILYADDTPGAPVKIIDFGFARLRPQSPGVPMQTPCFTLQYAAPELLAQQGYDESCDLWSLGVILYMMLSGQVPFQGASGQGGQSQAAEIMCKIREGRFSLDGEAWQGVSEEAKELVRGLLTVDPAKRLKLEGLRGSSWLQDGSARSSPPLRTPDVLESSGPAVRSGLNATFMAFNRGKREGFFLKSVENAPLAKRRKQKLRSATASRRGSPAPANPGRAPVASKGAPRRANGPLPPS
Sequence of AKT3 (human) (Q9Y243 whole entry, looked up): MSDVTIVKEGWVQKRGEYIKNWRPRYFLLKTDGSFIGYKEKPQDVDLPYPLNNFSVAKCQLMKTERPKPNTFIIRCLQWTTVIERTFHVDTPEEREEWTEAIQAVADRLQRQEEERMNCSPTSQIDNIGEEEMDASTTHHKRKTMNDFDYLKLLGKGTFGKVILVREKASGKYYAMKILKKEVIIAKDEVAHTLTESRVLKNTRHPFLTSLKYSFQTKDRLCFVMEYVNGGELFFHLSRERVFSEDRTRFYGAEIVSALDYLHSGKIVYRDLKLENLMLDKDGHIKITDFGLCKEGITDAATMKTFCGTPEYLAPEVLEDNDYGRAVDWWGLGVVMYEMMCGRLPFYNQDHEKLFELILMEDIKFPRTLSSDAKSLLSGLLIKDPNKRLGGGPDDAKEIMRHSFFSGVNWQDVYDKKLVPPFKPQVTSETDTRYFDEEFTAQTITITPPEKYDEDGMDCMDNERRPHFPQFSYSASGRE

| Compound | inhibition (AKT1 (human)) [%] | inhibition (AKT2 (human)) [%] | inhibition (AKT3 (human)) [%] | inhibition (AURKA (human)) [%] | inhibition (AURKC (human)) [%] | inhibition (DMPK (human)) [%] | inhibition (PDPK1 (human)) [%] | inhibition (PKN1 (human)) [%] | inhibition (PRKACA (mouse)) [%] | inhibition (PRKACB (human)) [%] | inhibition (PRKCD (human)) [%] | inhibition (PRKCE (human)) [%] | inhibition (PRKCG (human)) [%] | inhibition (PRKCH (human)) [%] | inhibition (PRKCI (human)) [%] | inhibition (PRKCQ (human)) [%] | inhibition (PRKX (human)) [%] | inhibition (RPS6KA1 KD1 (human)) [%] | inhibition (RPS6KA2 KD1 (human)) [%] | inhibition (RPS6KA3 KD1 (human)) [%] | further results |
| --- | --- | --- | --- | --- | --- | --- | --- | --- | --- | --- | --- | --- | --- | --- | --- | --- | --- | --- | --- | --- | --- |
| COc1cc2ncn(-c3cc(OCc4ccccc4C(F)(F)F)c(C(N)=O)s3)c2cc1OC | 12 | 0 | 0 | 2 | 28 | 18 | 2 | 4 | 14 | 12 | 4 | 12 | 10 | 0 | 0 | 23 | 11 | 10 | 30 | 27 | inhibition (RPS6KA4 KD1 (human)): 14%; inhibition (RPS6KA5 KD1 (human)): 0%; inhibition (RPS6KA6 KD1 (human)): 59%; inhibition (SGK2 (human)): 4%; inhibition (SGK3 (human)): 0%; inhibition (STK32B (human)): 15% |
| NC(=O)Nc1sc(-c2ccc(F)cc2)cc1C(N)=O | 0 | 0 | 0 | 1 | 31 | 0 | 0 | 0 | 4 | 0 | 0 | 19 | 0 | 56 | 0 | 18 | 9 | 44 | 20 | 7 | inhibition (AURKB (human)): 56%; inhibition (RPS6KA4 KD1 (human)): 16%; inhibition (RPS6KA5 KD1 (human)): 0%; inhibition (RPS6KA6 KD1 (human)): 37%; inhibition (SGK2 (human)): 0%; inhibition (SGK3 (human)): 0%; inhibition (STK32B (human)): 0% |
| Cc1cc(I)ccc1Nc1c(C(=O)NOCC2CC2)cc(F)c(F)c1F | 0 | 0 | 0 | 0 | 0 | 20 | 0 | 0 | 0 | 0 | 0 | 9 | 12 | 0 | 0 | 1 | 6 | 6 | 0 | 0 | inhibition (AURKB (human)): 4%; inhibition (RPS6KA4 KD1 (human)): 0%; inhibition (RPS6KA5 KD1 (human)): 0%; inhibition (RPS6KA6 KD1 (human)): 0%; inhibition (SGK2 (human)): 0%; inhibition (SGK3 (human)): 2%; inhibition (STK32B (human)): 0% |
| CN(C)CCCn1cc(C2=C(c3c[nH]c4ccccc34)C(=O)NC2=O)c2ccccc21 | 5 | 0 | 37 | 2 | 0 | 34 | 0 | 5 | 26 | 34 | 52 | 37 | 11 | 77 | 35 | 69 | 10 | 40 | 59 | 33 | inhibition (AURKB (human)): 0%; inhibition (RPS6KA4 KD1 (human)): 30%; inhibition (RPS6KA5 KD1 (human)): 39%; inhibition (RPS6KA6 KD1 (human)): 32%; inhibition (SGK2 (human)): 0%; inhibition (SGK3 (human)): 2%; inhibition (STK32B (human)): 29% |
| COc1cc(CC2C(=O)OC[C@@H]2Cc2ccc(OC)c(OC)c2)ccc1O (some centres undefined) | 0 | 0 | 0 | 11 | 6 | 0 | 0 | 0 | 0 | 1 | 0 | 0 | 0 | 0 | 0 | 0 | 0 | 2 | 0 | 6 | inhibition (AURKB (human)): 0%; inhibition (RPS6KA4 KD1 (human)): 0%; inhibition (RPS6KA5 KD1 (human)): 0%; inhibition (RPS6KA6 KD1 (human)): 12%; inhibition (SGK2 (human)): 7%; inhibition (SGK3 (human)): 1%; inhibition (STK32B (human)): 15% |
